What was measured:
Format in all cases: functional
[1] = system: MCF7; test: Cytotoxicity against human MCF7 cells assessed as cell growth at 100 uM after 48 hrs by sulforhodamine B assay relative to control; conditions: MCF7, 48 h, read-out: Activity
[2] = system: T47D; test: Cytotoxicity against human T47D cells assessed as cell growth at 100 uM after 48 hrs by sulforhodamine B assay relative to control; conditions: read-out: Activity
[3] = system: ACHN; test: Cytotoxicity against human ACHN cells assessed as cell growth at 1 uM after 48 hrs by sulforhodamine B assay relative to control; conditions: read-out: Activity
[4] = system: RXF 393; test: Cytotoxicity against human RXF393 cells assessed as cell growth at 0.01 uM after 48 hrs by sulforhodamine B assay relative to control; conditions: RXF 393, 48 h, read-out: Activity
[5] = system: NCI-H460; test: Cytotoxicity against human NCI-H460 cells assessed as cell growth at 0.01 uM after 48 hrs by sulforhodamine B assay relative to control; conditions: NCI-H460, 48 h, read-out: Activity
[6] = system: NCI-H226; test: Cytotoxicity against human NCI-H226 cells assessed as cell growth at 0.1 uM after 48 hrs by sulforhodamine B assay relative to control; conditions: NCI-H226, 48 h, read-out: Activity
[7] = system: SK-MEL-2; test: Cytotoxicity against human SK-MEL-2 cells assessed as growth inhibition after 48 hrs by sulforhodamine B assay; conditions: SK-MEL-2, 48 h
[8] = system: SNB-19; test: Cytotoxicity against human SNB19 cells assessed as cell growth at 0.01 uM after 48 hrs by sulforhodamine B assay relative to control; conditions: SNB-19, 48 h, read-out: Activity
[9] = system: NCI-H226; test: Cytotoxicity against human NCI-H226 cells assessed as cell growth at 1 uM after 48 hrs by sulforhodamine B assay relative to control; conditions: NCI-H226, 48 h, read-out: Activity
[10] = system: Hs-578T; test: Cytotoxicity against human Hs 578T cells assessed as cell growth at 100 uM after 48 hrs by sulforhodamine B assay relative to control; conditions: read-out: Activity
[11] = system: SR; test: Cytotoxicity against human SR cells assessed as cell growth at 0.01 uM after 48 hrs by sulforhodamine B assay relative to control; conditions: read-out: Activity
[12] = system: BT-549; test: Cytotoxicity against human BT549 cells assessed as cell growth at 1 uM after 48 hrs by sulforhodamine B assay relative to control; conditions: BT-549, 48 h, read-out: Activity
[13] = system: NCI/ADR-RES; test: Cytotoxicity against human NCI/ADR-RES cells assessed as cell growth at 0.1 uM after 48 hrs by sulforhodamine B assay relative to control; conditions: read-out: Activity
[14] = system: OVCAR-4; test: Cytotoxicity against human OVCAR4 cells assessed as cell growth at 0.1 uM after 48 hrs by sulforhodamine B assay relative to control; conditions: OVCAR-4, 48 h, read-out: Activity
[15] = system: BT-549; test: Cytotoxicity against human BT549 cells assessed as growth inhibition after 48 hrs by sulforhodamine B assay; conditions: BT-549, 48 h
[16] = system: SK-MEL-5; test: Cytotoxicity against human SK-MEL-5 cells assessed as cell growth at 10 uM after 48 hrs by sulforhodamine B assay relative to control; conditions: SK-MEL-5, 48 h, read-out: Activity
[17] = system: NCI-H522; test: Cytotoxicity against human NCI-H522 cells assessed as growth inhibition after 48 hrs by sulforhodamine B assay; conditions: NCI-H522, 48 h
[18] = system: BT-549; test: Cytotoxicity against human BT549 cells assessed as cell growth at 100 uM after 48 hrs by sulforhodamine B assay relative to control; conditions: BT-549, 48 h, read-out: Activity
[19] = system: MDA-MB-468; test: Cytotoxicity against human MDA-MB-468 cells assessed as growth inhibition after 48 hrs by sulforhodamine B assay; conditions: MDA-MB-468, 48 h
[20] = system: A498; test: Cytotoxicity against human A498 cells assessed as growth inhibition after 48 hrs by sulforhodamine B assay; conditions: A498, 48 h
[21] = system: U-251; test: Cytotoxicity against human U251 cells assessed as cell growth at 1 uM after 48 hrs by sulforhodamine B assay relative to control; conditions: U-251, 48 h, read-out: Activity
[22] = system: OVCAR-5; test: Cytotoxicity against human OVCAR5 cells assessed as cell growth at 0.1 uM after 48 hrs by sulforhodamine B assay relative to control; conditions: OVCAR-5, 48 h, read-out: Activity
[23] = system: NCI-H522; test: Cytotoxicity against human NCI-H522 cells assessed as cell growth at 100 uM after 48 hrs by sulforhodamine B assay relative to control; conditions: NCI-H522, 48 h, read-out: Activity
[24] = system: MCF7; test: Cytotoxicity against human MCF7 cells assessed as cell growth at 10 uM after 48 hrs by sulforhodamine B assay relative to control; conditions: MCF7, 48 h, read-out: Activity
[25] = system: MDA-MB-468; test: Cytotoxicity against human MDA-MB-468 cells assessed as cell growth at 0.1 uM after 48 hrs by sulforhodamine B assay relative to control; conditions: MDA-MB-468, 48 h, read-out: Activity
[26] = system: ACHN; test: Cytotoxicity against human ACHN cells assessed as cell growth at 100 uM after 48 hrs by sulforhodamine B assay relative to control; conditions: read-out: Activity
[27] = system: A549; test: Cytotoxicity against human A549/ATCC cells assessed as cell growth at 100 uM after 48 hrs by sulforhodamine B assay relative to control; conditions: A549, 48 h, read-out: Activity
[28] = system: OVCAR-4; test: Cytotoxicity against human OVCAR4 cells assessed as cell growth at 10 uM after 48 hrs by sulforhodamine B assay relative to control; conditions: OVCAR-4, 48 h, read-out: Activity
[29] = system: T47D; test: Cytotoxicity against human T47D cells assessed as cell growth at 10 uM after 48 hrs by sulforhodamine B assay relative to control; conditions: read-out: Activity
[30] = system: HOP-62; test: Cytotoxicity against human HOP62 cells assessed as cell growth at 100 uM after 48 hrs by sulforhodamine B assay relative to control; conditions: HOP-62, 48 h, read-out: Activity
[31] = system: A549; test: Cytotoxicity against human A549/ATCC cells assessed as cell growth at 10 uM after 48 hrs by sulforhodamine B assay relative to control; conditions: A549, 48 h, read-out: Activity
[32] = system: Malme-3M; test: Cytotoxicity against human MALME-3M cells assessed as cell growth at 10 uM after 48 hrs by sulforhodamine B assay relative to control; conditions: read-out: Activity
[33] = system: MOLT-4; test: Cytotoxicity against human MOLT4 cells assessed as cell growth at 0.1 uM after 48 hrs by sulforhodamine B assay relative to control; conditions: MOLT-4, 48 h, read-out: Activity
[34] = system: PC-3; test: Cytotoxicity against human PC3 cells assessed as cell growth at 100 uM after 48 hrs by sulforhodamine B assay relative to control; conditions: PC-3, 48 h, read-out: Activity
[35] = system: HT-29; test: Cytotoxicity against human HT-29 cells assessed as growth inhibition after 48 hrs by sulforhodamine B assay; conditions: HT-29, 48 h
[36] = system: HCC 2998; test: Cytotoxicity against human HCC2998 cells assessed as cell growth at 100 uM after 48 hrs by sulforhodamine B assay relative to control; conditions: HCC 2998, 48 h, read-out: Activity
[37] = system: ACHN; test: Cytotoxicity against human ACHN cells assessed as cell growth at 0.1 uM after 48 hrs by sulforhodamine B assay relative to control; conditions: read-out: Activity

With COc1cc(-c2cc(/C=C/C(=O)c3ccc(N)cc3)[nH]n2)cc(OC)c1OC the growth at 100 µM [1] was -57%, the growth at 100 µM [2] was -47% and the growth at 1 µM [3] was 79%. It also gave a growth at 0.01 µM [4] of 91%, a growth at 0.01 µM [5] of 102% and a growth at 0.1 µM [6] of 98%. For the same compound, the GI50 [7] was 2.85 µM, the LC50 (concentration killing 50% of cells) [7] was 31.9 µM and the TGI [7] was 7.53 µM. It also gave a growth at 0.01 µM [8] of 96%, a growth at 1 µM [9] of 88% and a growth at 100 µM [10] of 2%. For the same compound, the growth at 0.01 µM [11] was 92%, the growth at 1 µM [12] was 73% and the growth at 0.1 µM [13] was 110%. For the same compound, the growth at 0.1 µM [14] was 105%, the GI50 [15] was 1.38 µM and the LC50 (concentration killing 50% of cells) [15] was 5.76 µM. For the same compound, the TGI [15] was 2.82 µM, the growth at 10 µM [16] was -95% and the GI50 [17] was 1.62 µM. The LC50 [17] was 9.81 µM, the TGI [17] was 3.99 µM and the growth at 100 µM [18] was -97%. For the same compound, the GI50 [19] was 1.01 µM, the LC50 [19] was 8.42 µM and the TGI [19] was 2.91 µM. It also gave a GI50 [20] of 1.64 µM, an LC50 [20] of 13.4 µM and a TGI [20] of 4.33 µM. The growth at 1 µM [21] was 76%, the growth at 0.1 µM [22] was 103% and the growth at 100 µM [23] was -83%. For the same compound, the growth at 10 µM [24] was -24%, the growth at 0.1 µM [25] was 83% and the growth at 100 µM [26] was -63%. The growth at 100 µM [27] was -52%, the growth at 10 µM [28] was -22% and the growth at 10 µM [29] was -38%. It also gave a growth at 100 µM [30] of -98%, a growth at 10 µM [31] of -15% and a growth at 10 µM [32] of -45%. For the same compound, the growth at 0.1 µM [33] was 102%, the growth at 100 µM [34] was -39% and the GI50 [35] was 1.85 µM. The LC50 [35] was over 100 µM, the TGI [35] was 4.82 µM and the growth at 100 µM [36] was -91%. For the same compound, the growth at 0.1 µM [37] was 97%.

COc1ccc(C(=O)/C=C/c2cc(-c3cc(OC)c(OC)c(OC)c3)n[nH]2)cc1 showed a growth at 100 µM [1] of -69%, a growth at 100 µM [2] of -9% and a growth at 1 µM [3] of 105%. It also gave a growth at 0.01 µM [4] of 93%, a growth at 0.01 µM [5] of 103% and a growth at 0.1 µM [6] of 102%. For the same compound, the LC50 (concentration killing 50% of cells) [7] was 99.2 µM, the TGI [7] was 19.6 µM and the growth at 0.01 µM [8] was 97%. The growth at 1 µM [9] was 92%, the growth at 100 µM [10] was 5% and the growth at 0.01 µM [11] was 97%. For the same compound, the growth at 1 µM [12] was 93%, the growth at 0.1 µM [13] was 97% and the growth at 0.1 µM [14] was 94%. The TGI [15] was 3.86 µM, the growth at 10 µM [16] was -89% and the LC50 [17] was 6.97 µM. The TGI [17] was 3.2 µM, the growth at 100 µM [18] was -49% and the GI50 [19] was 1.29 µM. It also gave an LC50 [19] of 5.45 µM, a TGI [19] of 2.65 µM and a TGI [20] of 3.94 µM. The growth at 1 µM [21] was 81%, the growth at 0.1 µM [22] was 97% and the growth at 100 µM [23] was -62%. For the same compound, the growth at 10 µM [24] was -64%, the growth at 0.1 µM [25] was 88% and the growth at 100 µM [26] was -93%. For the same compound, the growth at 100 µM [27] was 1%, the growth at 10 µM [28] was -7% and the growth at 10 µM [29] was 1%. The growth at 100 µM [30] was -79%, the growth at 10 µM [31] was -15% and the growth at 10 µM [32] was -66%. For the same compound, the growth at 0.1 µM [33] was 103%, the growth at 100 µM [34] was 1% and the TGI [35] was 4.19 µM. For the same compound, the growth at 100 µM [36] was -82% and the growth at 0.1 µM [37] was 102%.

From ChEMBL document CHEMBL4138123, “Design, synthesis and biological evaluation of novel pyrazolochalcones as potential modulators of PI3K/Akt/mTOR pathway and inducers of apoptosis in breast cancer cells” (Eur J Med Chem, 2017)
